{"source": "patent US20250367215A1", "about": "“PHARMACEUTICAL COMBINATION COMPRISING A CHOLANE DERIVATIVE AND A STATIN OR URSODESOXYCHOLIC ACID” (BAR PHARMACEUTICALS SOCIETA' A RESPONSABILITA' LIMITATA, priority 2022, published 2025)", "tested_on": "C57BL6 mice", "test": "HFD-F diet-induced NASH mouse model, BAR502 and UDCA (Example 2)", "type": "in vivo", "details": "C57BL6 mice on HFD-F for 61 days; oral from day 6; UDCA 30 mg/kg alone or with BAR502 30 mg/kg", "description": "The mouse model of Example 1 was used once again. Using this mouse model, the inventors therefore investigated the effectiveness of the association between BAR502 and UDCA in preventing the development of NASH.", "data": [{"smiles": "C[C@H](CCC(=O)O)[C@H]1CC[C@H]2[C@@H]3[C@@H](O)C[C@@H]4C[C@H](O)CC[C@]4(C)[C@H]3CC[C@]12C", "note": "[UDCA, ursodesoxycholic acid]", "values": [{"measurement": "effect on insulin resistance, glucose load curve (OGTT) (FIG. 9)", "result": "beneficial effects on insulin resistance"}]}]}
